# Reference: ChEMBL document CHEMBL4145489, “Synthesis and anti-tumor activity of EF24 analogues as IKKβ inhibitors” (Eur J Med Chem, 2018)
# Active and inactive are the calls of the source. The calls are words filed in the database; no cut-off is given here.
# Columns and labels:
# [1] = molecular target: T1, Inhibitor of nuclear factor kappa-B kinase subunit beta (Homo sapiens) (UniProt O14920); test: Inhibition of IKKbeta in human MGC-803 cells assessed as TNF-alpha induced I-kappa-B-alpha degradation at 1 to 10 uM preincubated for 1 hr followed by TNF-alpha stimulation and measured after 10 mins by Western blot analysis; format: cell-based
# T1 sequence (whole entry): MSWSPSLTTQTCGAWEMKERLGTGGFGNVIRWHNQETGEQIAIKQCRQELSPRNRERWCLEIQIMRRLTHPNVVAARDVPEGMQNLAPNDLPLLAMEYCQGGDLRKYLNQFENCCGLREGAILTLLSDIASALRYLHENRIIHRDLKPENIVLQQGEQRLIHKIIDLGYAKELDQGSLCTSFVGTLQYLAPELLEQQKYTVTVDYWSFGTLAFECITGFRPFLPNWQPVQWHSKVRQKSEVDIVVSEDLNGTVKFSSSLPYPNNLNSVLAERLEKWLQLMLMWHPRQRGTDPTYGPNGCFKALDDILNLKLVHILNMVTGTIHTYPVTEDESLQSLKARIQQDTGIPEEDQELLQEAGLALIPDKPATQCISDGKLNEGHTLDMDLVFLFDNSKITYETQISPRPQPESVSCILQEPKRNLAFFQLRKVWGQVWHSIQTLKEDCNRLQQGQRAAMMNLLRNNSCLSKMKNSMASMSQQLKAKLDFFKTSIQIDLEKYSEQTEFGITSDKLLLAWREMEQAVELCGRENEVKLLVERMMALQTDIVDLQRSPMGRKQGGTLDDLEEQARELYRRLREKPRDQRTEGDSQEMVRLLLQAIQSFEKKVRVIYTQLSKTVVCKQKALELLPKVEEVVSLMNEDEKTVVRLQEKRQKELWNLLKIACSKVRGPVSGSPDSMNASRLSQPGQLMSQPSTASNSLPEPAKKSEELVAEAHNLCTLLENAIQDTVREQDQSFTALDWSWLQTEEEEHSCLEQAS
# [2] = molecular target: T2, Inhibitor of NF-kappa-B kinase alpha/beta (Homo sapiens) (UniProt O14920+O15111); test: Inhibition of TNF-alpha induced IKKalpha/beta phosphorylation in human SGC-7901 cells preincubated for 1 hr followed by TNF-alpha stimulation and measured after 10 mins by Western blot analysis; format: cell-based
# [3] = molecular target: T2, Inhibitor of NF-kappa-B kinase alpha/beta (Homo sapiens); test: Inhibition of TNF-alpha induced IKKalpha/beta phosphorylation in human MGC-803 cells preincubated for 1 hr followed by TNF-alpha stimulation and measured after 10 mins by Western blot analysis; format: cell-based
# [4] = molecular target: T1, Inhibitor of nuclear factor kappa-B kinase subunit beta (Homo sapiens); test: Inhibition of IKKbeta in human SGC-7901 cells assessed as TNF-alpha induced I-kappa-B-alpha degradation at 1 to 10 uM preincubated for 1 hr followed by TNF-alpha stimulation and measured after 10 mins by Western blot analysis; format: cell-based
# [5] = molecular target: T1, Inhibitor of nuclear factor kappa-B kinase subunit beta (Homo sapiens); test: Inhibition of IKKbeta in human SGC-7901 cells assessed as decrease in TNF-alpha induced p65 nuclear translocation at 10 uM preincubated for 1 hr followed by TNF-alpha stimulation and measured after 1 hr by DAPI staining-based fluorescence microscopic analysis; format: cell-based
# HeLa 229 = test: Antiproliferative activity against human HeLa 229 cells after 72 hrs by MTT assay; format: functional, cell-based; details: HeLa 229, 72 h
# A549 = test: Antiproliferative activity against human A549 cells after 72 hrs by MTT assay; format: functional, cell-based; details: A549, 72 h
# SGC-7901 [6] = test: Antiproliferative activity against human SGC7901 cells after 72 hrs by MTT assay; format: functional, cell-based; details: SGC-7901, 72 h
# MGC-803 [7] = test: Antiproliferative activity against human MGC803 cells after 72 hrs by MTT assay; format: functional, cell-based; details: MGC-803, 72 h
# SGC-7901 [8] = test: Cell cycle arrest in human SGC7901 cells assessed as accumulation of cells at G2/M phase at 1 to 10 uM after 12 hrs by propidium iodide staining-based flow cytometric analysis; format: functional
# SGC-7901 [9] = test: Cell cycle arrest in human SGC7901 cells assessed as decrease in cyclinB1 levels at 1 to 10 uM after 12 hrs by Western blot analysis; format: functional, cell-based
# SGC-7901 [10] = test: Cell cycle arrest in human SGC7901 cells assessed as decrease in Cdc2 p34 levels after 12 hrs by Western blot analysis; format: functional, cell-based
# MGC-803 [11] = test: Cell cycle arrest in human MGC803 cells assessed as accumulation of cells at G2/M phase at 1 to 10 uM after 12 hrs by propidium iodide staining-based flow cytometric analysis; format: functional
# MGC-803 [12] = test: Cell cycle arrest in human MGC803 cells assessed as decrease in cyclinB1 levels at 1 to 10 uM after 12 hrs by Western blot analysis; format: functional, cell-based
# MGC-803 [13] = test: Cell cycle arrest in human MGC803 cells assessed as decrease in Cdc2 p34 levels after 12 hrs by Western blot analysis; format: functional, cell-based
# SGC-7901 [14] = test: Induction of apoptosis in human SGC7901 cells at 1 uM after 12 hrs by Annexin V-FITC staining-based FACS analysis (reference value: 1.56%); format: functional
# SGC-7901 [15] = test: Induction of apoptosis in human SGC7901 cells at 5 uM after 12 hrs by Annexin V-FITC staining-based FACS analysis (reference value: 1.56%); format: functional
# SGC-7901 [16] = test: Induction of apoptosis in human SGC7901 cells at 10 uM after 12 hrs by Annexin V-FITC staining-based FACS analysis (reference value: 1.56%); format: functional
# MGC-803 [17] = test: Induction of apoptosis in human MGC803 cells at 1 uM after 12 hrs by Annexin V-FITC staining-based FACS analysis (reference value: 1.17%); format: functional
# MGC-803 [18] = test: Induction of apoptosis in human MGC803 cells at 5 uM after 12 hrs by Annexin V-FITC staining-based FACS analysis (reference value: 1.17%); format: functional
# MGC-803 [19] = test: Induction of apoptosis in human MGC803 cells at 10 uM after 12 hrs by Annexin V-FITC staining-based FACS analysis (reference value: 1.17%); format: functional
# SGC-7901 [20] = test: Induction of apoptosis in human SGC7901 cells after 12 hrs by Annexin V-FITC staining-based FACS analysis; format: functional, cell-based
# MGC-803 [21] = test: Induction of apoptosis in human MGC803 cells after 12 hrs by Annexin V-FITC staining-based FACS analysis; format: functional, cell-based
# SGC-7901 [22] = test: Induction of apoptosis in human SGC7901 cells assessed as decrease in Bcl-2 levels at 1 to 10 uM after 12 hrs by Western blot analysis; format: functional, cell-based
# SGC-7901 [23] = test: Induction of apoptosis in human SGC7901 cells assessed as increase in cleaved caspase-3 levels at 1 to 10 uM after 12 hrs by Western blot analysis; format: functional, cell-based
# MGC-803 [24] = test: Induction of apoptosis in human MGC803 cells assessed as decrease in Bcl-2 levels at 1 to 10 uM after 12 hrs by Western blot analysis; format: functional, cell-based
# MGC-803 [25] = test: Induction of apoptosis in human MGC803 cells assessed as increase in cleaved caspase-3 levels at 1 to 10 uM after 12 hrs by Western blot analysis; format: functional, cell-based
# SGC-7901 [26] = test: Antitumor activity against human SGC7901 cells xenografted in athymic nude mouse assessed as tumor growth inhibition at 10 mg/kg, ip administered every other day for 22 days; format: functional, organism-based
# Mus musculus [27] = test: Toxicity in athymic nude mouse xenografted with human SGC7901 cells assessed as body weight loss at 10 mg/kg, ip administered every other day for 22 days; format: organism-based; details: in vivo, 528 h
# Mus musculus [28] = test: In vivo inhibition of IKKalpha/beta phosphorylation in tumor of athymic nude mouse xenografted with human SGC7901 cells at 10 mg/kg, ip administered every other day for 22 days by Western blot method; format: functional, organism-based
# Mus musculus [29] = test: In vivo inhibition of IKKalpha/beta in tumor of athymic nude mouse xenografted with human SGC7901 cells assessed as I-kappa-B-alpha degradation at 10 mg/kg, ip administered every other day for 22 days by Western blot method; format: functional, organism-based
# Mus musculus [30] = test: Downregulation of Bcl-2 levels in tumor of athymic nude mouse xenografted with human SGC7901 cells at 10 mg/kg, ip administered every other day for 22 days by Western blot method; format: functional, organism-based
# [31] = molecular target: T3, Inhibitor of nuclear factor kappa-B kinase subunit beta (Homo sapiens, UniProt O14920); test: Inhibition of IKKbeta (unknown origin) using FAM-P22 as substrate preincubated for 10 mins followed by substrate addition and measured after 1 hr by mobility shift assay
# T3 sequence (O14920 whole entry): T1 sequence (whole entry)
smiles,measurement,setting,value
O=C1/C(=C/c2ccccc2Br)CNC/C1=C\c1ccccc1Br,inhibition,[1],Active
same,inhibition,[2],Dose-dependent effect
same,inhibition,[3],Dose-dependent effect
same,inhibition,[4],Active
same,inhibition,[5],Active
same,IC50,HeLa 229,1.8 µM
same,IC50,A549,2.1 µM
same,IC50,SGC-7901 [6],1.2 µM
same,IC50,MGC-803 [7],1.8 µM
same,Activity,SGC-7901 [8],Active
same,Activity,SGC-7901 [9],Active
same,Activity,SGC-7901 [10],Dose-dependent effect
same,Activity,MGC-803 [11],Active
same,Activity,MGC-803 [12],Active
same,Activity,MGC-803 [13],Dose-dependent effect
same,Activity,SGC-7901 [14],8.95%
same,Activity,SGC-7901 [15],27.9%
same,Activity,SGC-7901 [16],45.3%
same,Activity,MGC-803 [17],9.88%
same,Activity,MGC-803 [18],16.14%
same,Activity,MGC-803 [19],32.1%
same,Activity,SGC-7901 [20],Dose-dependent effect
same,Activity,MGC-803 [21],Dose-dependent effect
same,Activity,SGC-7901 [22],Active
same,Activity,SGC-7901 [23],Active
same,Activity,MGC-803 [24],Active
same,Activity,MGC-803 [25],Active
same,TGI,SGC-7901 [26],Active
same,Activity,Mus musculus [27],Non-Toxic
same,inhibition,Mus musculus [28],Active
same,inhibition,Mus musculus [29],Active
same,Activity,Mus musculus [30],Active
Cc1ccc2nc(NCCN)c3ncc(C)n3c2c1.Cl,IC50,HeLa 229,9.4 µM
same,IC50,A549,9.3 µM
same,IC50,SGC-7901 [6],8.3 µM
same,IC50,MGC-803 [7],14.2 µM
same,Activity,SGC-7901 [16],19.49%
same,Activity,MGC-803 [19],12.61%
O=C1/C(=C/c2ccccc2F)COC/C1=C\c1ccccc1F,IC50,[31],19.6 µM
O=C1/C(=C/c2ccccc2F)CNC/C1=C\c1ccccc1F,IC50,HeLa 229,1.9 µM
same,IC50,A549,2.8 µM
same,IC50,SGC-7901 [6],1 µM
same,IC50,MGC-803 [7],2 µM
O=C1/C(=C/c2c(F)cccc2F)CNC/C1=C\c1c(F)cccc1F,IC50,[31],14 µM
